Experimental data from ChEMBL document CHEMBL1139267, “Discovery of a potent, selective and orally bioavailable 3,9-diazaspiro[5.5]undeca-2-one CCR5 antagonist” (Bioorg Med Chem Lett, 2009).
One block for each compound: values may come before it.

Key:
[1] = system: Human immunodeficiency virus 1; test: Antiviral activity against R5 tropic HIV1 BaL infected in human JC53-BL cells expressing CCR5 after 2 days by cell-cell fusion assay; format: functional, organism-based; details: Human immunodeficiency virus 1, BaL, JC53BL, 48 h
[2] = biological target: C-C chemokine receptor type 5 (Homo sapiens, UniProt P51681); test: Antagonist activity at CCR5 receptor by radiolabeled RANTES binding assay
[3] = biological target: T1, C-C chemokine receptor type 4 (Homo sapiens, UniProt P51679); test: Inhibition of CCR4 receptor
T1 sequence (P51679 whole entry): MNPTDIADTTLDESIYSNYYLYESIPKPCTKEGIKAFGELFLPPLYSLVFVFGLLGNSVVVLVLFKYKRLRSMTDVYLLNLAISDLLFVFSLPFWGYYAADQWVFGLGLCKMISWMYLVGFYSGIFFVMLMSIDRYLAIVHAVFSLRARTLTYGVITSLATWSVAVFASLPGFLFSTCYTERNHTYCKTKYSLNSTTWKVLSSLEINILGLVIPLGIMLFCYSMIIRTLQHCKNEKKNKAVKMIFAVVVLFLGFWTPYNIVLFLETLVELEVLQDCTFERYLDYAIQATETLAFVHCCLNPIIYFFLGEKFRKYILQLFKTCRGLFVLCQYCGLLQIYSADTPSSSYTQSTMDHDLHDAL

[4] = Mean retention time in rat at 0.5 mg/kg, iv; format: ADME, organism-based; design: dose 0.5 mg/kg, route intravenous; details: in vivo
[5] = biological target: T2, C-C chemokine receptor type 3 (Homo sapiens, UniProt P51677); test: Inhibition of CCR3 receptor
T2 sequence (P51677 whole entry): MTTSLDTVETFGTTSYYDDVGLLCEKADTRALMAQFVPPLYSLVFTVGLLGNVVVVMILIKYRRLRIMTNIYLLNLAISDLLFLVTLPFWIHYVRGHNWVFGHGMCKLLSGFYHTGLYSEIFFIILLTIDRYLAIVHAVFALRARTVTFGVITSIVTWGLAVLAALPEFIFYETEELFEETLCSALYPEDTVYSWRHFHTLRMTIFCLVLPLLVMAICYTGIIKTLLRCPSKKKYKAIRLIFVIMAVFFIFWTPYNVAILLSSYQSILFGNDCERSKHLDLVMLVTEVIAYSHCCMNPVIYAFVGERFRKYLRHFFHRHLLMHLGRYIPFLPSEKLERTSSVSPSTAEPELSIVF

[6] = Clearance in rat at 0.5 mg/kg, iv; format: ADME, organism-based; design: dose 0.5 mg/kg, route intravenous; details: in vivo
[7] = system: Rattus norvegicus; test: Cmax in rat at 2 mg/kg, po; format: ADME, organism-based; design: dose 2 mg/kg, route oral; details: in vivo
[8] = biological target: C-X-C chemokine receptor type 4 (Homo sapiens, UniProt P61073); test: Inhibition of CXCR4 receptor
[9] = biological target: T3, C-C chemokine receptor type 1 (Homo sapiens, UniProt P32246); test: Inhibition of CCR1 receptor
T3 sequence (P32246 whole entry): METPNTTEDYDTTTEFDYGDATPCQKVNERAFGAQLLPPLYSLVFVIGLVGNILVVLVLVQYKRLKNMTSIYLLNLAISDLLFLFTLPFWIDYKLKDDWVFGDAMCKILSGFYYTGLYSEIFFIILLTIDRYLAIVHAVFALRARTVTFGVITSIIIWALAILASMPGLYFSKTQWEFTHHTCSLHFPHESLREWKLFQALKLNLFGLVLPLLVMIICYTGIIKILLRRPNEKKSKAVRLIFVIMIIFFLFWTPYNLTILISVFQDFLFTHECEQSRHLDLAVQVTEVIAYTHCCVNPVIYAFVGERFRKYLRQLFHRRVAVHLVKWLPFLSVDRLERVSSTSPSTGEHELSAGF

[10] = Volume of distribution at steady state in rat at 0.5 mg/kg, iv; format: ADME, organism-based; design: dose 0.5 mg/kg, route intravenous; details: in vivo, read-out: Vdss
[11] = system: Rattus norvegicus; test: Tmax in rat at 2 mg/kg, po; format: ADME, organism-based; design: dose 2 mg/kg, route oral; details: in vivo
[12] = biological target: hERG (KCNH2) (Homo sapiens, UniProt Q12809); test: Inhibition of human ERG receptor
[13] = system: Human immunodeficiency virus 1; test: Inhibition of R5 tropic HIV1 BaL replication in human PBMC; format: functional, organism-based; details: Human immunodeficiency virus 1, BaL
[14] = Oral bioavailability in rat at 2 mg/kg; format: ADME, organism-based; details: in vivo
[15] = Half life in rat at 0.5 mg/kg, iv; format: ADME, organism-based; design: dose 0.5 mg/kg, route intravenous; details: in vivo
[16] = biological target: T4, C-C chemokine receptor type 6 (Homo sapiens, UniProt P51684); test: Inhibition of CCR6 receptor
T4 sequence (P51684 whole entry): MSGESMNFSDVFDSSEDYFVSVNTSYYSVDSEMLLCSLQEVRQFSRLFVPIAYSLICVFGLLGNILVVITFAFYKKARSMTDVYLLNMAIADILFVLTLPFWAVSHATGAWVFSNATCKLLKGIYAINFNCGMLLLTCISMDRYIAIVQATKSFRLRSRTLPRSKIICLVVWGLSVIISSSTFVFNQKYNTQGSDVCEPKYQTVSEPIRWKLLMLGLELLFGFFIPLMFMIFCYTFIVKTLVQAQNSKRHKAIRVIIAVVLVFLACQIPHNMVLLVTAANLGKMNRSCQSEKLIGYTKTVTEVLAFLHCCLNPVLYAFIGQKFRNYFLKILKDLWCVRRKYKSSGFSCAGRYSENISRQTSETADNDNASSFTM

[17] = system: Rattus norvegicus; test: Half life in rat at 2 mg/kg, po; format: ADME, organism-based; design: dose 2 mg/kg, route oral; details: in vivo
[18] = Mean retention time in rat at 2 mg/kg, po; format: ADME, organism-based; design: dose 2 mg/kg, route oral; details: in vivo
[19] = AUC in rat at 0.5 mg/kg, iv; format: ADME, organism-based; design: dose 0.5 mg/kg, route intravenous; details: plasma
[20] = system: Rattus norvegicus; test: AUC in rat at 2 mg/kg, po; format: ADME, organism-based, Plasma; design: dose 2 mg/kg, route oral; details: in vivo
[21] = biological target: C-C chemokine receptor type 2 (Homo sapiens, UniProt P41597); test: Inhibition of CCR2 receptor
[22] = Metabolic stability in human liver microsomes assessed as clearance; format: ADME, Microsome

C-C chemokine receptor type 5, sequence (P51681 whole entry): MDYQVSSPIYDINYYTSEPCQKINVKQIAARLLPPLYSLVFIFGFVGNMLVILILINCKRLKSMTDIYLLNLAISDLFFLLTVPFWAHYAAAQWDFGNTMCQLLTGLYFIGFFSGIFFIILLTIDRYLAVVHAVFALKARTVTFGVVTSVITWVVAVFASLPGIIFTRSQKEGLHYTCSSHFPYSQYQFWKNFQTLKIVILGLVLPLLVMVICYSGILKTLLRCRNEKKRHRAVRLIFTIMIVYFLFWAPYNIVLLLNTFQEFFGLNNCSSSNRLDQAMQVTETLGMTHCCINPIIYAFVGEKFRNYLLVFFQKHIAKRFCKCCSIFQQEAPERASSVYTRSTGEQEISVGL
C-C chemokine receptor type 2, sequence (P41597 whole entry): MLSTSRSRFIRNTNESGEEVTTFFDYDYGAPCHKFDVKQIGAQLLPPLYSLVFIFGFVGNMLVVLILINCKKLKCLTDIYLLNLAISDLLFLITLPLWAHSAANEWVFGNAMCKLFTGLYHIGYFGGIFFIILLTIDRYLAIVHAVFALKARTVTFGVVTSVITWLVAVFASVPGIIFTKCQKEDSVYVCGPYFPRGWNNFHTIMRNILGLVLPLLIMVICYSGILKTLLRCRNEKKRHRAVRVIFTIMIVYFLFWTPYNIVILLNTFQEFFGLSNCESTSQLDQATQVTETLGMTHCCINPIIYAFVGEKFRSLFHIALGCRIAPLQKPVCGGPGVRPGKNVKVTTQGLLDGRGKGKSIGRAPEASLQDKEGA
hERG (KCNH2), sequence (Q12809 whole entry): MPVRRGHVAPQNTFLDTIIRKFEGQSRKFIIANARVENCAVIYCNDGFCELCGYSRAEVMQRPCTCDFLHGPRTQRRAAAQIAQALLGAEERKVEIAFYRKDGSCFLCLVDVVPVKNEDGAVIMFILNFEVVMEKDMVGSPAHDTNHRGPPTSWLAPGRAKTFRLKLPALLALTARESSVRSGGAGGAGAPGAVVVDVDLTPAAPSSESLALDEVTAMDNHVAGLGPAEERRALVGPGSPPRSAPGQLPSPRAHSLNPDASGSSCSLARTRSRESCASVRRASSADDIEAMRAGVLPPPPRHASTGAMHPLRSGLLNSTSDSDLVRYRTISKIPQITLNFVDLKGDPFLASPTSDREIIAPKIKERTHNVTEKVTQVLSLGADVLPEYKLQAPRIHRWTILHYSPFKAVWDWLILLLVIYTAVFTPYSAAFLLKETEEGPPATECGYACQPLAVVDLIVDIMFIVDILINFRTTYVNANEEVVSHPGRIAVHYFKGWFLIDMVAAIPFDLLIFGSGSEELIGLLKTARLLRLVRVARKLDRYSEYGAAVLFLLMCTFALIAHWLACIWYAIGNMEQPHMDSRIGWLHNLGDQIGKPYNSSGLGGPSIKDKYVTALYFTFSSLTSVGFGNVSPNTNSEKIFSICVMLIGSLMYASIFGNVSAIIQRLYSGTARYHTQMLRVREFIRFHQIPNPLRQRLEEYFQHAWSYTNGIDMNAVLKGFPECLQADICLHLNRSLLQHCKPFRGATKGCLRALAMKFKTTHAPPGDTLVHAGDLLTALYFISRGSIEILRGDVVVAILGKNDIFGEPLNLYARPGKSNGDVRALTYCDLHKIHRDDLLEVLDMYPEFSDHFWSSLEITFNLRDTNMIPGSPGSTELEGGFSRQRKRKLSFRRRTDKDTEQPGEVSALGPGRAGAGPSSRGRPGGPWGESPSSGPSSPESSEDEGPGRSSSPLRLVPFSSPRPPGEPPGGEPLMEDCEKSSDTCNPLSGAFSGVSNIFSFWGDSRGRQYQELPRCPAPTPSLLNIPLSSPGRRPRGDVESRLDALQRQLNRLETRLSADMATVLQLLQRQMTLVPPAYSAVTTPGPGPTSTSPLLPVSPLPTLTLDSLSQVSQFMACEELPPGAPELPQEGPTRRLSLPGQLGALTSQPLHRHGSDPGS
C-X-C chemokine receptor type 4, sequence (P61073 whole entry): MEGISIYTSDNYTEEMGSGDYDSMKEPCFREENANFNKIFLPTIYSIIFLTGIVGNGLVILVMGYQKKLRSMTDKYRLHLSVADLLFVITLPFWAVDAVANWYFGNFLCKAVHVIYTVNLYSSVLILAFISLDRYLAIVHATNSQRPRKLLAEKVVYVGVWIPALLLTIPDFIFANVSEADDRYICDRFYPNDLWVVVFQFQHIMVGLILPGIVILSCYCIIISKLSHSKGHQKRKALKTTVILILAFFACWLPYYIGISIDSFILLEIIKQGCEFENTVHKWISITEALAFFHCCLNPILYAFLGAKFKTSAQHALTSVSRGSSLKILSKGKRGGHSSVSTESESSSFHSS

SMILES: CCCCC1C(=O)N(C[C@H]2CC[C@H](OC)CC2)CCC12CCN(C1(C)CCN(C(=O)c3c(C)ncnc3C)CC1)CC2 (some centres not stated)
IC50 [1]: 6 nM | IC50 [2]: 37 nM

SMILES: CCCCC1C(=O)N(C[C@H]2CC[C@H](OCC)CC2)CCC12CCN(C1(C)CCN(C(=O)c3c(C)ncnc3C)CC1)CC2 (some centres not stated)
IC50 [3]: > 50000 nM | MRT [4]: 2.65 h | IC50 [5]: > 50000 nM | IC50 [1]: 5 nM | clearance [6]: 24.1 mL/min/kg | Cmax [7]: 2.03 ng/mL | IC50 [8]: > 50000 nM | IC50 [2]: 30 nM | IC50 [9]: > 50000 nM | Vd [10]: 4.71 L/kg | Tmax [11]: 1 h | IC20 [12]: 3000 nM | IC50 [13]: 1.4 nM | IC90 [13]: 7.5 nM | bioavailability [14]: 66% | half-life [15]: 3.8 h | IC50 [16]: > 50000 nM | t1/2 [17]: 4.19 h | MRT [18]: 4.33 h | AUC [19]: 334 ng·h/mL | AUC [20]: 910 ng·h/mL | IC50 [21]: > 50000 nM

SMILES: CCCCC1CN(S(=O)(=O)C2CCN(C=O)CC2)CCC12CCN(C1(C)CCN(C(=O)c3c(C)ncnc3C)CC1)CC2 (configuration not stated)
microsomal CLint [22]: 60 µL/min/mg | IC50 [1]: 14 nM | IC50 [2]: 64 nM

SMILES: CCCC[C@@H]1C(=O)N(C[C@H]2CC[C@H](OCC)CC2)CCC12CCN(C1(C)CCN(C(=O)c3c(C)ncnc3C)CC1)CC2
IC50 [13]: 0.5 nM | IC90 [13]: 3 nM

SMILES: CCCCC1CN(C(=O)OC2CCOCC2)CCC12CCN(C1(C)CCN(C(=O)c3c(C)ncnc3C)CC1)CC2 (configuration not stated)
IC50 [1]: > 5000 nM | IC50 [2]: 349 nM

SMILES: CCCCC1CN(C(=O)C2CCOCC2)CCC12CCN(C1(C)CCN(C(=O)c3c(C)ncnc3C)CC1)CC2 (configuration not stated)
IC50 [1]: > 5000 nM | IC50 [2]: > 500 nM

SMILES: CCCCC1C(=O)N(CC2CCOCC2)CCC12CCN(C1(C)CCN(C(=O)c3c(C)ncnc3C)CC1)CC2 (configuration not stated)
IC50 [1]: 4 nM | IC50 [2]: 30 nM

SMILES: CCCCC1CN(S(=O)(=O)c2cn(C)cn2)CCC12CCN(C1(C)CCN(C(=O)c3c(C)ncnc3C)CC1)CC2 (configuration not stated)
microsomal CLint [22]: 96 µL/min/mg | IC50 [1]: 7 nM | IC50 [2]: 27 nM

SMILES: Cc1ncnc(C)c1C(=O)N1CCC(C)(N2CCC3(CC2)CCN(S(C)(=O)=O)CC3c2ccccc2)CC1 (configuration not stated)
IC50 [1]: 1900 nM | IC50 [2]: 104 nM

SMILES: CCCCC1C(=O)N(CC2CCN(CC(F)F)CC2)CCC12CCN(C1(C)CCN(C(=O)c3c(C)ncnc3C)CC1)CC2 (configuration not stated)
IC50 [1]: 26 nM | IC50 [2]: 70 nM

SMILES: CCCCC1C(=O)N(Cc2ccc(F)cc2)CCC12CCN(C1(C)CCN(C(=O)c3c(C)ncnc3C)CC1)CC2 (configuration not stated)
IC50 [1]: 100 nM | IC50 [2]: 19 nM

SMILES: CCCC[C@H]1CN(S(=O)(=O)CC(F)(F)F)CCC12CCN(C1(C)CCN(C(=O)c3c(C)ncnc3C)CC1)CC2
microsomal CLint [22]: 53 µL/min/mg | IC50 [1]: 3 nM | IC50 [2]: 19 nM

SMILES: CCCCC1CN(S(=O)(=O)N2CCOCC2)CCC12CCN(C1(C)CCN(C(=O)c3c(C)ncnc3C)CC1)CC2 (configuration not stated)
microsomal CLint [22]: 276 µL/min/mg | IC50 [1]: 1 nM | IC50 [2]: 11 nM

SMILES: CCCCC1CN(S(=O)(=O)C2CC2)CCC12CCN(C1(C)CCN(C(=O)c3c(C)ncnc3C)CC1)CC2 (configuration not stated)
microsomal CLint [22]: 100 µL/min/mg | IC50 [1]: 7 nM | IC50 [2]: 22 nM

SMILES: CCCCC1CN(S(=O)(=O)N(C)C)CCC12CCN(C1(C)CCN(C(=O)c3c(C)ncnc3C)CC1)CC2 (configuration not stated)
microsomal CLint [22]: 207 µL/min/mg | IC50 [1]: 7 nM | IC50 [2]: 60 nM

SMILES: CCCCC1CN(CC2CCOCC2)CCC12CCN(C1(C)CCN(C(=O)c3c(C)ncnc3C)CC1)CC2 (configuration not stated)
IC50 [1]: > 5000 nM | IC50 [2]: > 500 nM

Continued, values first:

microsomal CLint [22]: 310 µL/min/mg | IC50 [1]: 4 nM | IC50 [2]: 18 nM
SMILES: CCCCC1CN(S(=O)(=O)c2ccccn2)CCC12CCN(C1(C)CCN(C(=O)c3c(C)ncnc3C)CC1)CC2 (configuration not stated)

IC50 [1]: 8 nM | IC50 [2]: 60 nM
SMILES: CCCCC1C(=O)N(CC2CCN(C(=O)OC)CC2)CCC12CCN(C1(C)CCN(C(=O)c3c(C)ncnc3C)CC1)CC2 (configuration not stated)

IC50 [1]: 4 nM | IC50 [2]: 35 nM
SMILES: CCCC[C@H]1CN(C(=O)NC)CCC12CCN(C1(C)CCN(C(=O)c3c(C)ncnc3C)CC1)CC2

microsomal CLint [22]: 70 µL/min/mg | IC50 [1]: 10 nM | IC50 [2]: 78 nM
SMILES: CCCCC1CN(S(=O)(=O)C2CCN(C(C)=O)CC2)CCC12CCN(C1(C)CCN(C(=O)c3c(C)ncnc3C)CC1)CC2 (configuration not stated)

IC50 [1]: < 2.5 nM | IC50 [2]: 31 nM
SMILES: CCCCC1C(=O)N(C[C@H]2CC[C@H](O)CC2)CCC12CCN(C1(C)CCN(C(=O)c3c(C)cc(C#N)nc3C)CC1)CC2 (some centres not stated)

microsomal CLint [22]: 773 µL/min/mg | IC50 [1]: < 1 nM | IC50 [2]: 19 nM
SMILES: CCCCC1CN(S(=O)(=O)c2ccccc2)CCC12CCN(C1(C)CCN(C(=O)c3c(C)ncnc3C)CC1)CC2 (configuration not stated)

IC50 [1]: 400 nM | IC50 [2]: 80 nM
SMILES: CCCOC1CN(S(=O)(=O)C2CC2)CCC12CCN(C1(C)CCN(C(=O)c3c(C)ncnc3C)CC1)CC2 (configuration not stated)

microsomal CLint [22]: 280 µL/min/mg | IC50 [1]: 6 nM | IC50 [2]: 22 nM
SMILES: CCCCC1CN(S(=O)(=O)C2CCOCC2)CCC12CCN(C1(C)CCN(C(=O)c3c(C)ncnc3C)CC1)CC2 (configuration not stated)

IC50 [1]: 10 nM | IC50 [2]: 76 nM
SMILES: CCCCC1C(=O)N(C[C@H]2CC[C@H](O)CC2)CCC12CCN(C1(C)CCN(C(=O)c3c(C)ncnc3C)CC1)CC2 (some centres not stated)

IC50 [13]: 0.8 nM | IC90 [13]: 4 nM
SMILES: CCCC[C@H]1C(=O)N(C[C@H]2CC[C@H](OCC)CC2)CCC12CCN(C1(C)CCN(C(=O)c3c(C)ncnc3C)CC1)CC2

microsomal CLint [22]: 7 µL/min/mg | IC50 [1]: 100 nM | IC50 [2]: 25 nM
SMILES: CCCCC1CN(S(C)(=O)=O)CCC12CCN(C1(C)CCN(C(=O)c3c(C)ncnc3C)CC1)CC2 (configuration not stated)

IC50 [1]: 170 nM | IC50 [2]: 217 nM
SMILES: CCCCC1CN(C(=O)C2CCOCC2)CCC12CCN(C1(C)CCN(C(=O)c3c(C)cc(C#N)nc3C)CC1)CC2 (configuration not stated)
